Source: PubChem BioAssay (NCI)
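Five concentrations, 48 hours, 96-well plates. Here, GI50 denotes the concentration required for 50% inhibition of growth. TGI is the concentration that stops growth completely.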

Legend:
Assay in all cases: NCI tumour cell line growth inhibition, 48 h
[1] = system: SK-MEL-2 melanoma
[2] = system: NCI/ADR-RES ovarian
[3] = system: CAKI-1 renal
[4] = system: SNB-19 CNS
[5] = system: COLO 205 colon
[6] = system: SK-OV-3 ovarian
[7] = system: M14 melanoma
[8] = system: SF-268 CNS
[9] = system: MDA-MB-231 breast
[10] = system: RPMI-8226 leukemia
[11] = system: HT29 colon
[12] = system: OVCAR-8 ovarian
[13] = system: TK-10 renal
[14] = system: NCI-H23 lung
[15] = system: EKVX NSCLC
[16] = system: PC-3 prostate
[17] = system: SK-MEL-5 melanoma
[18] = system: SNB-75 CNS
[19] = system: 786-0 renal
[20] = system: CCRF-CEM leukemia
[21] = system: U251 CNS
[22] = system: UACC-257 melanoma
[23] = system: SW-620 colon
[24] = system: MDA-MB-435
[25] = system: HL-60(TB) leukemia
[26] = system: HS 578T breast
[27] = system: NCI-H226 lung
[28] = system: HOP-92 NSCLC
[29] = system: K-562 leukemia
[30] = system: T-47D breast
[31] = system: UO-31 renal
[32] = system: NCI-H522 lung
[33] = system: HCT-116 colon
[34] = system: OVCAR-5 ovarian
[35] = system: HCC-2998 colon
[36] = system: HCT-15 colon
[37] = system: BT-549 breast
[38] = system: SF-295 CNS
[39] = system: OVCAR-3 ovarian
[40] = system: DU-145 prostate
[41] = system: NCI-H460 lung
[42] = system: SK-MEL-28 melanoma
[43] = system: ACHN renal
[44] = system: SF-539 CNS
[45] = system: RXF 393 renal
[46] = system: KM12 colon
[47] = system: A498 renal
[48] = system: HOP-62 NSCLC
[49] = system: MALME-3M melanoma
[50] = system: MCF7 breast
[51] = system: IGROV1 ovarian
[52] = system: UACC-62 melanoma
[53] = system: SN12C renal
[54] = system: A549 NSCLC
[55] = system: OVCAR-4 ovarian

COc1cc2c(cc1OC)[C@@H]1C(=O)c3cc4c(cc3[C@@H]1N(CCN(C)C)C2=O)OCO4 was tested, and the GI50 [1] was 11100 nM, the TGI [1] was over 100000 nM and the GI50 [2] was 337 nM. For the same molecule, the TGI [2] was 14700 nM, the TGI [3] was 1080 nM and the GI50 [4] was 1730 nM. It also gave a TGI [4] of over 47300 nM, a GI50 [5] of 663 nM and a TGI [5] of over 35500 nM. It also gave a GI50 [6] of 4200 nM, a TGI [6] of over 65200 nM and a GI50 [7] of 81.4 nM. For the same molecule, the TGI [7] was 11200 nM, the GI50 [8] was 56 nM and the TGI [8] was 18100 nM. The GI50 [9] was 1060 nM, the TGI [9] was 11800 nM and the GI50 [10] was 28.9 nM. The TGI [10] was 349 nM, the GI50 [11] was 104 nM and the GI50 [12] was 661 nM. It also gave a TGI [12] of 9660 nM, a GI50 [13] of 1530 nM and a TGI [13] of 13700 nM. It also gave a GI50 [14] of 162 nM, a TGI [14] of 5090 nM and a GI50 [15] of 1260 nM. It also gave a TGI [15] of 21500 nM, a GI50 [16] of 316 nM and a TGI [16] of 13300 nM. For the same molecule, the GI50 [17] was 144 nM, the TGI [17] was 935 nM and the GI50 [18] was 11100 nM. The TGI [18] was 30700 nM, the GI50 [19] was under 20.3 nM and the TGI [19] was 5020 nM. The TGI [20] was over 100000 nM, the GI50 [21] was 42.7 nM and the TGI [21] was 12000 nM. For the same molecule, the GI50 [22] was 784 nM, the TGI [22] was over 33100 nM and the GI50 [23] was 36.9 nM. For the same molecule, the TGI [23] was 18700 nM, the GI50 [24] was 787 nM and the TGI [24] was 23500 nM. For the same molecule, the GI50 [25] was 23.7 nM, the TGI [25] was 75.2 nM and the GI50 [26] was 11100 nM. The TGI [26] was 38500 nM, the GI50 [27] was 210 nM and the TGI [27] was 2280 nM. It also gave a GI50 [28] of 208 nM, a TGI [28] of 8870 nM and a GI50 [29] of 270 nM. The TGI [29] was over 42400 nM, the GI50 [30] was 923 nM and the TGI [30] was 31300 nM. It also gave a GI50 [31] of 85.5 nM, a GI50 [32] of 61.1 nM and a TGI [32] of 3200 nM. The GI50 [33] was 116 nM, the TGI [33] was 1530 nM and the GI50 [34] was 1100 nM. The TGI [34] was 15500 nM, the GI50 [35] was 609 nM and the TGI [35] was 9770 nM. For the same molecule, the GI50 [36] was 368 nM, the TGI [36] was 5820 nM and the GI50 [37] was 838 nM. The TGI [37] was 22900 nM, the GI50 [38] was 19.4 nM and the TGI [38] was 37100 nM. For the same molecule, the GI50 [39] was 349 nM, the TGI [39] was 1960 nM and the GI50 [40] was 30 nM. It also gave a TGI [40] of 4840 nM, a GI50 [41] of under 23.4 nM and a TGI [41] of 2360 nM. It also gave a GI50 [42] of 2190 nM, a TGI [42] of over 41300 nM and a GI50 [43] of 17.9 nM. It also gave a TGI [43] of 452 nM, a GI50 [44] of 66.9 nM and a TGI [44] of 11100 nM. It also gave a GI50 [45] of 1260 nM, a TGI [45] of over 21600 nM and a GI50 [46] of 355 nM. It also gave a TGI [46] of 2170 nM, a GI50 [47] of 2780 nM and a TGI [47] of 9430 nM. The GI50 [48] was 35.5 nM, the TGI [48] was 10600 nM and the GI50 [49] was 188 nM. It also gave a TGI [49] of 3660 nM, a GI50 [50] of under 36.6 nM and a TGI [50] of 14200 nM. The GI50 [51] was 445 nM, the TGI [51] was over 100000 nM and the GI50 [52] was under 14.6 nM. It also gave a TGI [52] of 544 nM, a GI50 [53] of 44.4 nM and a TGI [53] of 3740 nM. For the same molecule, the GI50 [54] was 171 nM, the TGI [54] was 3670 nM and the GI50 [55] was 768 nM. The TGI [55] was 18300 nM.
